For one substance, Km results are on record in publication PMC9649612, “Molecular docking and biochemical validation of (-)-syringaresinol-4-O-β-D-apiofuranosyl-(1→2)-β-D-glucopyranoside binding to an allosteric site in monoamine transporters” (Frontiers in Pharmacology, 2022).

One assay addresses T1, WT-hDAT (Homo sapiens, UniProt Q01959).
T1 construct: expressed in transfected cells; host or cells: HeLa
Description: APP+ transport (uptake) in HeLa cells expressing WT-hDAT. The following applies: hDAT; kinetic analysis. Type of assay: cell-based. As for the experimental part: (§1) HeLa cells were cultured in Dulbecco’s Modified Eagle’s Medium supplemented with 10% fetal bovine serum, 100 units/ml penicillin, and 100 μg/ml streptomycin at 37°C in a humidified 5% CO2 incubator. Cells were plated in a 6-well culture plate and grown overnight. Cells at ∼70% confluence were transfected with hSERT, hDAT, or hNET cDNA in pcDNA3.1 by lipofectamine 2000. Transfected cells were incubated for 24 h at 37°C with 5% CO2 and then transferred into a 12-well plate placed with polylysine coated slides. After grown for additional 12–16 h, the cells were assayed for APP^+ or ASP^+ fluorescence image acquisition.
(§2) The cells expressing WT or mutants of hSERT, hDAT, or hNET were wet mounted on polylysine coated glass slides in 12-well plates and applied for the indicated treatments. […] The extent of APP^+ accumulated in the cells was determined by confocal imaging analysis. ASP^+ binding to SERT in the cell membrane was measured with digitonin-permeabilized cells ([Li M. et al., 2022a]). […] After removing excess ASP^+ by rapid washing three times, ASP^+ binding was determined by confocal imaging analysis.
(§3) Images were analyzed using Zen Blue software.
(§4) Nonlinear regression fits of experimental and calculated data were performed with Origin (Origin Lab). […]

For another assay, the target named is T2, WT-hNET (Homo sapiens, UniProt P23975).
T2 construct: expressed in transfected cells; host or cells: HeLa
Kind of assay: APP+ transport (uptake) in HeLa cells expressing WT-hNET. It is filed as cell-based. The following applies: hNET; kinetic analysis. As for the experimental part: as §1, §2, §3, §4

Another assay deals with T3, WT-hSERT (Homo sapiens, UniProt P31645).
T3 construct: expressed in transfected cells; host or cells: HeLa (ATCC CCL-2), transient, pcDNA3.1
Further details: method as in our previous experiments. Particulars: ref our previous experiments, read-out: Km for APP+ transport; cited from earlier work.

T3 sequence (P31645 whole entry): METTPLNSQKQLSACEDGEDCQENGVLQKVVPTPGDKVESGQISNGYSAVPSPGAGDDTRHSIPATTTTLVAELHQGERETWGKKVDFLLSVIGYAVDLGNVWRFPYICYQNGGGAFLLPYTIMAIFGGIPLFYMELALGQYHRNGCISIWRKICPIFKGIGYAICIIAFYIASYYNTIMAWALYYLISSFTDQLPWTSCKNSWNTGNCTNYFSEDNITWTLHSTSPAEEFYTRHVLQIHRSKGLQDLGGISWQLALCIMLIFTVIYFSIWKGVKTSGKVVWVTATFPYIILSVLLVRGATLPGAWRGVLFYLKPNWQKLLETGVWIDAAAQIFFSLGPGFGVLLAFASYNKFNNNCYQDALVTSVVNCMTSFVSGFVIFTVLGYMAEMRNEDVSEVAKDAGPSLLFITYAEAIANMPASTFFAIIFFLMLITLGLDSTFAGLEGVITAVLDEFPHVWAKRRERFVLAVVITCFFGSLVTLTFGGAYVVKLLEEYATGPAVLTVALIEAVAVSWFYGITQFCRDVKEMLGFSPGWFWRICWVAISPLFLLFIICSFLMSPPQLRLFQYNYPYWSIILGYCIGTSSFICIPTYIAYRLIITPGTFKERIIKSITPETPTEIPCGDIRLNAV
T1 sequence (Q01959 whole entry): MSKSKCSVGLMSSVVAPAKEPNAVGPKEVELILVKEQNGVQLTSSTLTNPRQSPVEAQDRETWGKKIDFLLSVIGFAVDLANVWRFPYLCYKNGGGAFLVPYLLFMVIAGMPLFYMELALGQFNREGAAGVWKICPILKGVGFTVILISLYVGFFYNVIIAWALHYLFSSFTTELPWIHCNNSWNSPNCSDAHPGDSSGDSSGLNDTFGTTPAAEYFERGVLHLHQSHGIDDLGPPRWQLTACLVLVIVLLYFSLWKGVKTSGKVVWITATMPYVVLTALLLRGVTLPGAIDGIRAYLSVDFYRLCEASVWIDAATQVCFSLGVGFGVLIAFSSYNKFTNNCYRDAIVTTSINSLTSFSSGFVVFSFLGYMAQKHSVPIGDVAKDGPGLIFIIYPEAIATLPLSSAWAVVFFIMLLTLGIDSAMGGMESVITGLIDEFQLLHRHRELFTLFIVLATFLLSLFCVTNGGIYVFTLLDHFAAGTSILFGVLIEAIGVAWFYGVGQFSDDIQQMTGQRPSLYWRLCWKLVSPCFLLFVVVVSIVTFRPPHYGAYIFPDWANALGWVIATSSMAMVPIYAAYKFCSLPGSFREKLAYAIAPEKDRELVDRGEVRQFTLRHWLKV
T2 sequence (P23975 whole entry): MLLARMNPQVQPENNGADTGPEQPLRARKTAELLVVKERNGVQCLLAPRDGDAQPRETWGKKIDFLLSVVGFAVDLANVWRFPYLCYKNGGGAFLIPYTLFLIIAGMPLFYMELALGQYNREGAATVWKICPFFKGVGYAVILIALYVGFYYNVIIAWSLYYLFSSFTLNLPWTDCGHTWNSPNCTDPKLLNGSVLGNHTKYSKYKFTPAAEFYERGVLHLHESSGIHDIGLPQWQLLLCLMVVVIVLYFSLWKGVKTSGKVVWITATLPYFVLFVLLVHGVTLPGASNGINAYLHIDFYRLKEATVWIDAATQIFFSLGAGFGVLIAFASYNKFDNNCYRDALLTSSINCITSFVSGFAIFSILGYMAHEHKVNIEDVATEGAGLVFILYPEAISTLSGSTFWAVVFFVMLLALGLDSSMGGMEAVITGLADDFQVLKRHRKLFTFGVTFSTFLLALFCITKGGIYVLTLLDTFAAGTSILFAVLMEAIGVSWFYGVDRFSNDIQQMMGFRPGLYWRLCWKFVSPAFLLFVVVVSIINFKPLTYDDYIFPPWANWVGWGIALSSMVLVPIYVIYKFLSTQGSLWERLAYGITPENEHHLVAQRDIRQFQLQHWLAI

As a reminder, the Km is the concentration of substrate that gives half-maximal velocity. As for “4-[4-(Dimethylamino)phenyl]-1-methylpyridinium [APP^+, reference compound]”, the Km on WT-hDAT is 2.89 ± 0.48 µM; at WT-hNET, 1.56 ± 0.22 µM; at WT-hSERT, 2.63 ± 0.16 µM.
